The results in this text go back to US7579356B2, “Thia-tetraazaacenaphthylene kinase inhibitors” (Janssen Pharmaceutica NV, priority 2005, dated 2009).

Values joined by “and” are separate entries in the source; they are usually repeats but may differ in a detail not shown here. Identical values can stand only once.

For test [1], the system named is N87 cells. Description: In Vivo Models - Inhibition of Tumor Growth, N87. Particulars: Mus musculus, po, 720 h, oral daily for 30 days, athymic mice, read-out: percent inhibition N87. The protocol:
(§1) In Vivo Models—Inhibition of Tumor Growth
(§2) The ability of test compounds to inhibit unregulated growth of human tumor cells in vivo was evaluated by implanting human tumor cells into the hindflank of athymic mice, administering a test compound and then quantifying any change in tumor size.
(§3) Human epidermoid A431 carcinoma, N87 cells and BT474 cells were implanted subcutaneously into the hindflank of female athymic mice (Charles River) and allowed to grow for 6-10 days. After a measurable tumor was established (as determined by baseline caliper measurement), the animal was administered an oral dose of the test compound daily for a period of 30 days. Tumor size was measured every five days and the degree of inhibition was determined by comparing drug-treated animals to vehicle-treated animals.
(§4) Variations of this method are intended to include intraperitoneal injection or intravenous infusion as the route of administration and administration of the test compound either alone or in a combination therapy.
(§5) The inhibition of tumor growth values are shown in Table 8 at various test concentrations, as indicated. For compounds with multiple values at one test concentration, each value represents a separate assay result.

Test [2] deals with T1, HER-4 (Homo sapiens, UniProt Q15303).
T1 construct: His6 with thrombin site (N); purchased Proqinase (Freiburg, Germany)
In words: HER-4 Kinase Assay. It is filed as biochemical. How it is done: The HER-4 kinase used was purified at Proqinase (Freiburg, Germany) from a construct that consisted of a fusion of GST (Glutathione-S-Transferase), HIS6-Thrombin and the nucleotides encoding amino acids 676 to 1307 of HER-4 (Accession NM 005235).
A mixture of a 10× kinase reaction buffer (600 mM Hepes at pH 7.5, 30 mM Magnesium Chloride, 0.03 mM Sodium Vanadate and 500 μg/mL PEG 20,000), DTT (1.2 mM final from a 10 mM) stock), ATP (1 μM from a 10 mM stock), biotinylated polyGluTyr (1.5 ng/μL final from stock of 1 μg/μL) prepared by Upstate Biotechnologies, Lake Placid, N.Y.), Manganese Chloride (3 mM final from a 1 M stock), γ-^33P-ATP (10 μCl/mL stock) and water (70 μL/well) was added to each well of a Streptavidin Flashplate (Cat. # SMP103, NEN, Boston, Mass.).
Test compound stock (1 μL) was added to the appropriate wells. Diluted GST HER-4 kinase (6.7 ng/μL diluted into 50 mM Tris-HCl at pH 8.0 and 0.1% bovine serum albumin) (30 μL) was added (total volume of 200 ng/well) to initiate the reactions.
The reaction plates were incubated at 30° C. for 1 hr. The reaction was terminated by aspirating the reaction mixture from the plate wells and washing the wells three times with a 1×PBS stop buffer (300 μL) and 100 mM EDTA. After the final wash, the same stop buffer (200 μL) was again added to the wells. The plates were then sealed and read on the TopCount scintillation counter.
For a series of test concentrations, the IC50 was derived by graphing percent inhibition against the log of the concentrations tested for a given compound.

In test [3] the target is T2, EGFR (Homo sapiens, UniProt P00533).
T2 construct: The intracellular portion of EGFR started at nucleotide 2189 (corresponding to amino acid 667) and ended at the termination codon; made in house; host or cells: Sf9 insect cells (baculovirus)
Description: EGFR Kinase Assay. The format is biochemical. Particulars: GST-EGFR, ATP 5 μM. An outline of the steps: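 Potency came from triplicate 16-point half-log titrations starting at 200 uM, with IC50 fitted from % inhibition against log concentration, or % inhibition at 2 μM otherwise. Reaction: Sf9-made GST–EGFR cytoplasmic region (aa 667 onward), biotin-polyGluTyr, 5 μM ATP with 33P tracer, pH 8.0 Tris/Mg/vanadate/DTT, 30 °C for 1 h; captured on streptavidin Flashplates and counted.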

In test [4] the target is T3, HER-2 (Homo sapiens, UniProt P04626).
T3 construct: His6 with thrombin site (N); purchased Proqinase (Freiburg, Germany)
Description: HER-2 Kinase Assay. The conditions noted are these: for IC50: value in parentheses; for inhibition at 1 µM: test concentration of 1 μM. It is filed as biochemical. An outline of the steps: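 Read-out was scintillation counting of 33P incorporated into biotinylated polyGluTyr captured on streptavidin plates. Reactions ran 1 h at 30 °C with GST-fused HER-2 residues 679–1255, 1 μM ATP, Mn2+ and Mg2+ at pH 7.5; data given as percent inhibition at 1 μM, with IC50 where determined.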

The test system of test [5] is SKBR3 breast carcinoma. In words: Cell Proliferation Inhibition Assay, SKBR3 (14C-thymidine). It is filed as cell-based. Particulars: Homo sapiens, SK-BR-3, C14 method. The text has this:
(§6) Cell Proliferation Inhibition Assay
(§7) The ability of a test compound to inhibit unregulated cell proliferation may be determined by measuring incorporation of ^14C-labelled thymidine into newly synthesized DNA within cell lines derived from carcinomas originating from several tissues. Accordingly, the effect of a test compound on proliferation of cells with a variety of phenotypes may be determined.
(§8) Carcinoma cell lines used include the HeLa cervical adenocarcinoma from the American Type Culture Collection (ATCC Cat. #CCL2), A375 malignant melanoma (ATCC Cat. #CRL-1619), HCT-116 colon carcinoma (ATCC Cat. #CCL-247), SKBR3 breast carcinoma (ATCC Cat. #HTB-30) and BT474 breast carcinoma (ATCC Cat. #HTB-20).
(§9) The carcinoma cells were trypsinized and counted. The cells (3000-8000 count) were added to each well of a 96-well CytoStar tissue culture treated scintillating microplate (Amersham #RPNQ0160) in complete medium (100 μL) and the plate was then incubated in complete medium for 24 hrs at 37° C. in an inert atmosphere containing 5% CO2.
(§10) Test compound (1 μL) in 100% DMSO was added to the plate test-wells with DMSO only added to control-wells. The plate was incubated in complete medium for a second 24 hr period at 37° C. in an atmosphere containing 5% CO2.
(§11) An aliquot of a solution of Methyl ^14C-thymidine (56 mC/mmol) (NEN #NEC568 or AMersham #CFA532) and complete medium (20 uL to provide 0.2 μCl/well) was then added to each well and the plate was incubated for a third 24 hr period at 37° C. in an atmosphere containing 5% CO2.
(§12) The plate contents were then discarded, the plate washed twice with PBS (200 μL) and then PBS (200 μL) was added to each well. The plate was sealed and the degree of methyl ^14C-thymidine incorporation was quantified on a Packard Top Count.
(§13) Cell proliferation of the Hela cell line was measured using the ATP-Lite method as described in the ATP Lite Kit (Perkin-Elmer Kit Number 6106941) or the C^14 method as described above. Cell proliferation of the other cell lines was measured using the C^14 method.

The subject of test [6] is HeLa cervical adenocarcinoma. In words: Cell Proliferation Inhibition Assay, Hela (ATP Lite). It is filed as cell-based. Particulars: Homo sapiens, ATP-Lite method.
Excerpt: as §6, §7, §8, §9, §10, §13

Test [7] has as its system BT474 breast carcinoma. In words: Cell Proliferation Inhibition Assay, BT474 (14C-thymidine). It is filed as cell-based. The conditions noted are these: Homo sapiens, BT-474, C14 method.
Excerpt: as §6, §7, §8, §9, §10, §11, §12, §13

For test [8], the system named is Human epidermoid A431 carcinoma. Description: In Vivo Models - Inhibition of Tumor Growth, A431. The conditions noted are these: oral daily for 30 days, athymic mice. How it is done:
as §1, §2, §3, §4, §5

In test [9] the test system is BT474 cells. Description: In Vivo Models - Inhibition of Tumor Growth, BT474. The conditions noted are these: 100 mg/kg, oral daily for 30 days, athymic mice. The protocol:
as §1, §2, §3, §4, §5

T2 sequence (P00533 669-1210 limits assumed): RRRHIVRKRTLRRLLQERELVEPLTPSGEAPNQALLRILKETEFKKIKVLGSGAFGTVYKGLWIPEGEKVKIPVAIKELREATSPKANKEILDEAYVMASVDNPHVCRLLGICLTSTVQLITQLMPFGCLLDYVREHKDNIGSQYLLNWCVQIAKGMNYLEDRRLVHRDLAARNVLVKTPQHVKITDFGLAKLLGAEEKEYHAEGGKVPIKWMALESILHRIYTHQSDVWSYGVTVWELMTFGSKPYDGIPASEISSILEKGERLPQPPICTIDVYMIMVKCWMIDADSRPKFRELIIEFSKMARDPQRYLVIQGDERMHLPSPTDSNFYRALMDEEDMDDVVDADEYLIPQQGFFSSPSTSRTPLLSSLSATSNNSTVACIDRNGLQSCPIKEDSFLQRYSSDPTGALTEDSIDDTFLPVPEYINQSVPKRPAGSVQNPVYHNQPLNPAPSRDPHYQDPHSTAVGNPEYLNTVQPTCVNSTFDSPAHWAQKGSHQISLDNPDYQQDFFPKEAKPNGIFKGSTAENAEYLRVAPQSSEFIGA
T1 sequence (Q15303 676-1307): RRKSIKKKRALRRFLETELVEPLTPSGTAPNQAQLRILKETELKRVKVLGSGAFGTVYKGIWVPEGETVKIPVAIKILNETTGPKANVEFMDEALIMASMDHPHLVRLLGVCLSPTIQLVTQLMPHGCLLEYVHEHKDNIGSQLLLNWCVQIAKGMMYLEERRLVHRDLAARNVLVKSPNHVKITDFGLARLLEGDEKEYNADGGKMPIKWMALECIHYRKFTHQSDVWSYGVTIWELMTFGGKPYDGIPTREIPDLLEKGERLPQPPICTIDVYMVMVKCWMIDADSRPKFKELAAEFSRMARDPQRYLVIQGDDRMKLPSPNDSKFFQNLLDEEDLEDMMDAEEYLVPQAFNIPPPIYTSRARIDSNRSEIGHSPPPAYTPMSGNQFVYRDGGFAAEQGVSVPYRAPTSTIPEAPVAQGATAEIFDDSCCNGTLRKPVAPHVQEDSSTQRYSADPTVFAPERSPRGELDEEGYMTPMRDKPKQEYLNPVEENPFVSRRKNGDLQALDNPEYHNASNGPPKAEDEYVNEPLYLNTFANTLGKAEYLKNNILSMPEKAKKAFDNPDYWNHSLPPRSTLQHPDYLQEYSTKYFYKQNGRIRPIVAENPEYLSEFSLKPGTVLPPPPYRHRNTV
T3 sequence (P04626 679-1255): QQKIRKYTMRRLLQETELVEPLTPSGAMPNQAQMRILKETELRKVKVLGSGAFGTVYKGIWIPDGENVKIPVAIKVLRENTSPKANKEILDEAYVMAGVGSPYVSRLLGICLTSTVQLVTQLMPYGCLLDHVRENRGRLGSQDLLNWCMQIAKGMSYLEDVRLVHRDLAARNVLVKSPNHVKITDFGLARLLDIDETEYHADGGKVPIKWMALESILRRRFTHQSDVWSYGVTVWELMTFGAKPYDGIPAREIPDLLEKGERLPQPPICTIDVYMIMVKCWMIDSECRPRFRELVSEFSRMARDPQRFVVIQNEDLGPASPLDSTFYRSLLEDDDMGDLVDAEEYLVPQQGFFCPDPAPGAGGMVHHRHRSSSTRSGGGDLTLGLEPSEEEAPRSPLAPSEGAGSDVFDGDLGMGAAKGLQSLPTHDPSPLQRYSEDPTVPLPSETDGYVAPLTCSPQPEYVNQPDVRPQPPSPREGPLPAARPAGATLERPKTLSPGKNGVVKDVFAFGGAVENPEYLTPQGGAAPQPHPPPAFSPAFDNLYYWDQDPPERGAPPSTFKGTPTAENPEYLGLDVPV

Regarding `O=C(Nc1ccc(CN2CCOCC2)cc1)c1sc2ncnc3c2c1NC(=O)N3c1ccc(OCc2ccco2)c(Cl)c1` [Cpd 245, 5-[3-chloro-4-(furan-2-ylmethoxy)-phenyl]-4-oxo-4,5-dihydro-3H-1-thia-3,5,6,8-tetraaza-acenaphthylene-2-carboxylic acid (4-morpholin-4-ylmethyl-phenyl)-amide], the inhibition in vivo at 100 mg/kg in test [1] amounted to 48.7%. Further, the IC50 was determined as 0.227 µM in test [2], 0.024 µM in test [3] and 0.048 µM in [4].
Turning to `COc1cc(NC(=O)c2sc3ncnc4c3c2NC(=O)N4c2cccc(Br)c2)ccc1OCCN1CCCCC1` [Cpd 63, 5-(3-bromo-phenyl)-4-oxo-4,5-dihydro-3H-1-thia-3,5,6,8-tetraaza-acenaphthylene-2-carboxylic acid [3-methoxy-4-(2-piperidin-1-yl-ethoxy)-phenyl]-amide], the IC50 in test [5] is 26.9 µM; in test [3], 0.104 µM; in test [6], 59 µM; in test [7], no less than 10 µM. In addition, at 1 µM the inhibition in [4] was 45%.
As to `O=C(Nc1ccc(CN2CCC(F)CC2)cc1)c1sc2ncnc3c2c1NC(=O)N3c1ccc(Oc2ccccc2)cc1` [Cpd 250, 4-oxo-5-(4-phenoxy-phenyl)-4,5-dihydro-3H-1-thia-3,5,6,8-tetraaza-acenaphthylene-2-carboxylic acid [4-(4-fluoro-piperidin-1-ylmethyl)-phenyl]-amide], in test [1], the inhibition in vivo at 100 mg/kg is 68.9%. Also, the IC50 is 0.033 µM in test [2], 0.037 µM in test [3] and 0.026 µM in test [4].
For `O=C(Nc1ccc(CN2CCC(O)CC2)cc1)c1sc2ncnc3c2c1NC(=O)N3c1ccc(Oc2ccccc2)cc1` [Cpd 233, 4-oxo-5-(4-phenoxy-phenyl)-4,5-dihydro-3H-1-thia-3,5,6,8-tetraaza-acenaphthylene-2-carboxylic acid [4-(4-hydroxy-piperidin-1-ylmethyl)-phenyl]-amide], in test [1], the inhibition in vivo at 100 mg/kg is 38.3%. Besides, the values for the IC50 in test [2], in test [3] and in [4] were 0.009 µM, 0.017 µM and 0.009 µM, respectively. Besides, the “percent inhibition A431” value in test [8] (100 mg/kg) turned out to be 2.2%.
With `O=C(Nc1ccc(CN2CCCC(F)C2)cc1)c1sc2ncnc3c2c1NC(=O)N3c1ccc(Oc2ccccc2)cc1` (centres unmarked) [Cpd 234, 4-oxo-5-(4-phenoxy-phenyl)-4,5-dihydro-3H-1-thia-3,5,6,8-tetraaza-acenaphthylene-2-carboxylic acid [4-(3-fluoro-piperidin-1-ylmethyl)-phenyl]-amide], the figures for the IC50 in test [2], in test [3] and in test [4] were 0.059 µM, 0.052 µM and 0.034 µM, respectively.
`COC1CCN(Cc2ccc(NC(=O)c3sc4ncnc5c4c3NC(=O)N5c3ccc(Oc4ccccc4)cc3)cc2)CC1` [Cpd 261, 4-oxo-5-(4-phenoxy-phenyl)-4,5-dihydro-3H-1-thia-3,5,6,8-tetraaza-acenaphthylene-2-carboxylic acid [4-(4-methoxy-piperidin-1-ylmethyl)-phenyl]-amide]: in test [9], the “percent inhibition BT474” value is 98%. In test [1] (25 mg/kg), the inhibition in vivo at 25 mg/kg came to 69.6%. Moreover, the inhibition in vivo at 50 mg/kg in test [1] (50 mg/kg) is 71%. Moreover, the inhibition in vivo at 100 mg/kg in test [1] turned out to be 75.4%. Also, the results for the IC50 in [3] and in test [4] were 0.018 µM and 0.011 µM, respectively. Moreover, the “percent inhibition A431” value in [8] (10 mg/kg) was 44%; in test [8] (30 mg/kg), 54.1%; in test [8] (100 mg/kg), 86.1% and 80.1%.
Consider `COc1cc(NC(=O)c2sc3ncnc4c3c2NC(=O)N4c2ccc(Oc3ccccc3)cc2)ccc1CN1CCOCC1` [Cpd 176, 4-oxo-5-(4-phenoxy-phenyl)-4,5-dihydro-3H-1-thia-3,5,6,8-tetraaza-acenaphthylene-2-carboxylic acid (3-methoxy-4-morpholin-4-ylmethyl-phenyl)-amide], for which the IC50 was determined as 0.047 µM in test [2], 0.022 µM in test [3] and 0.012 µM in [4].
Regarding `O=C(Nc1ccc(CN2CCCCC2)cc1)c1sc2ncnc3c2c1NC(=O)N3c1ccc(F)c(Cl)c1` [Cpd 3, 5-(3-chloro-4-fluoro-phenyl)-4-oxo-4,5-dihydro-3H-1-thia-3,5,6,8-tetraaza-acenaphthylene-2-carboxylic acid (4-piperidin-1-ylmethyl-phenyl)-amide], the IC50 was 9.72 µM in test [5], 0.009 µM in [3], 42.6 µM in test [6] and 9.58 µM in test [7]. The molecule also gave an inhibition at 1 µM in test [4] of 59%.

A word on the IC50: it is the midpoint of a concentration-inhibition curve. What is called inhibition is the drop in the measured response relative to a control, in per cent. Low values mean a weak effect, high ones a strong effect.
